Assay results as given in article PMC5911580, “YL143, a novel mutant selective irreversible EGFR inhibitor, overcomes EGFR^L858R, T790M‐mutant resistance in vitro and in vivo” (Cancer Medicine, 2018).

What was measured:
[1] = target: TRKA (Homo sapiens, UniProt P04629); test: Z'-Lyte kinase panel, TRKA; type: biochemical; conditions: 1.5 hrs incubation
Protocol: Kinase activity assays were performed using the FRET-based Z′-Lyte assay according to the manufacturer’s instructions. The compounds were incubated with the kinase reaction mixture for 1.5 hrs before measurement. The data are means from two independent experiments and the variations are below 20%.

[2] = Pharmacokinetic study in SD rats; type: in vivo, rat
Protocol: Sprague Dawley (SD) rats (180–220 g) were fasted overnight before drug administration. They could eat food and drink water freely during the study. Rats were grouped and treated with 25 and 5 mg/kg of YL143 in vehicle via oral gavage and i.v., respectively. Eyeground vein blood samples (0.20 mL) were collected from each animal at designed time point postdose (5, 30 min, 1, 2, 4, 8, 12, 24, 36, 48, 60, and 72 h.). Blood samples were centrifuged within 10 min at 900 g, and then, plasma was separated and stored at 4°C until analysis. Drug concentration was quantitatively detected using an API 300 mass spectrometer (Applied Biosystems, Canada) with TurboIonSpray source interface. Data acquisition and quantitation were performed using Analyst 1.4 (Applied Biosystems, Canada). All pharmacokinetic parameters were calculated by DAS 2.0 using a noncompartment model (Clinical drug research center of Shanghai University of Traditional Chinese Medicine, Shanghai, China).

[3] = target: IR (Homo sapiens, UniProt P06213); test: FRET-based Z'-Lyte kinase assay, IR; type: biochemical; conditions: AV ± SD; 1.5 h incubation
IR, sequence (P06213 28-1382): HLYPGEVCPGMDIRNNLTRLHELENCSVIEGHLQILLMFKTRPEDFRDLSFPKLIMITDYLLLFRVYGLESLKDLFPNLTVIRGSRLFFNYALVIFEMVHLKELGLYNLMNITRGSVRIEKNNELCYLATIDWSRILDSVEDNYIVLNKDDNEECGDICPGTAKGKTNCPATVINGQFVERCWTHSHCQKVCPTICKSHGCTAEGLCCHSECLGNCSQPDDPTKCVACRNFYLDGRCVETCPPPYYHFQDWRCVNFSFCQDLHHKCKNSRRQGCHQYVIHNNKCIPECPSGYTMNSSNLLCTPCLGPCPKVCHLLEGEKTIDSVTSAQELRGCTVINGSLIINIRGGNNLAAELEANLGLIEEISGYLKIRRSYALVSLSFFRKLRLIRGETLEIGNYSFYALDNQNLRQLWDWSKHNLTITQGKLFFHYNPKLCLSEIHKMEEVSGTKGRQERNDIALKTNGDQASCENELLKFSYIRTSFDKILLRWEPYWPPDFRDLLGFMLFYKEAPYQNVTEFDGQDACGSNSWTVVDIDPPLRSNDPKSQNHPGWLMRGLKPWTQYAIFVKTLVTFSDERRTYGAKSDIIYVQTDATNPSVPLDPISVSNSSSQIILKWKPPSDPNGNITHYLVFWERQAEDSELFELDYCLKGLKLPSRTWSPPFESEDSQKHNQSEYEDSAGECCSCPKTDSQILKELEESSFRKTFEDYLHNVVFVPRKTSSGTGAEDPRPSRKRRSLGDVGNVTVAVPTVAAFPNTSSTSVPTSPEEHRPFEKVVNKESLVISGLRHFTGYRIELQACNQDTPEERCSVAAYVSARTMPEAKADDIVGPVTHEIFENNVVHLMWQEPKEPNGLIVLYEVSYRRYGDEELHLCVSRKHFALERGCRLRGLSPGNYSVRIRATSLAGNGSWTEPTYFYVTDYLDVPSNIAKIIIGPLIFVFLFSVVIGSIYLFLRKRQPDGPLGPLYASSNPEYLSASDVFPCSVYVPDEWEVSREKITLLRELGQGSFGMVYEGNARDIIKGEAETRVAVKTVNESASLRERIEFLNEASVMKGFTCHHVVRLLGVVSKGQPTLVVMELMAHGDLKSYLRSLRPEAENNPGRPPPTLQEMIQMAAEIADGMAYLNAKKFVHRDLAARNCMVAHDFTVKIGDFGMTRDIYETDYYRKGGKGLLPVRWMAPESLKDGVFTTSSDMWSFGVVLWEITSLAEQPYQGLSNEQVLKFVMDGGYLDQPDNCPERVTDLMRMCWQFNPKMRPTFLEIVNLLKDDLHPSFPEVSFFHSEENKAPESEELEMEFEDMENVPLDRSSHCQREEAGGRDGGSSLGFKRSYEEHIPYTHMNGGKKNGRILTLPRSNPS
Protocol: The kinase activity assay was performed and optimized according to the instructions of Z’‐LYTE™ kinase assay kits from the manufacturer (PV4879, Life, America). In our experiments, 10 concentration gradients from 0.01 nmol/L to 1.0 μmol/L were used for all the compounds.

[4] = Sprague-Dawley, rat, plasma, iv, I.V. 5 mg/Kg
[5] = Sprague-Dawley, rat, plasma, po, P.O. 25 mg/Kg

TRKA, sequence (P04629 33-796, species assumed): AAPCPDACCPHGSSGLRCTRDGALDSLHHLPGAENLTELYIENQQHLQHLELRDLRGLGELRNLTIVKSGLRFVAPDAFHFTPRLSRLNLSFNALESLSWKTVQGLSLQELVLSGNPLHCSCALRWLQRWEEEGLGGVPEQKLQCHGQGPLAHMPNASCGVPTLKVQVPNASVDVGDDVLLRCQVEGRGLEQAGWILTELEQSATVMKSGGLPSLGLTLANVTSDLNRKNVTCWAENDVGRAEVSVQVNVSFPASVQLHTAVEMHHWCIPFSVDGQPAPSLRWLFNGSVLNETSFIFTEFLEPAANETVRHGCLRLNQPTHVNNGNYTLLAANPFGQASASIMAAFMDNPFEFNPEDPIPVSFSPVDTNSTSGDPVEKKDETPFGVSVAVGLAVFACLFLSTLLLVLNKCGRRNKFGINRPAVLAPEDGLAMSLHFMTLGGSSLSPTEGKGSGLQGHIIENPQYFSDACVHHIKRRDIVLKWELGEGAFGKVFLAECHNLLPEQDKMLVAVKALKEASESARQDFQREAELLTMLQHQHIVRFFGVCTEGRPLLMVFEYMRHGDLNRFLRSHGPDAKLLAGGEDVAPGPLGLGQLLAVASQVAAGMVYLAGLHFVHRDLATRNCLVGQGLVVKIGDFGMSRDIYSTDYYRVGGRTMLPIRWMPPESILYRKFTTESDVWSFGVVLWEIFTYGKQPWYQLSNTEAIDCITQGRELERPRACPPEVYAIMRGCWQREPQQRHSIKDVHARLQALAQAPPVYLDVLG

For `C=CC(=O)Nc1cc(C)cc(-n2c(=O)cc(C)c3cnc(Nc4ccc(N5CCN(C)CC5)cc4OC)nc32)c1` [YL143, N‐(3‐(2‐((2‐Methoxy‐4‐(4‐methylpiperazin‐1‐yl)phenyl)amino)‐5‐methyl‐7‐oxopyrido [2,3‐d]pyrimidin‐8(7H)‐yl)‐5‐methylphenyl)acrylamide], the IC50 [1] was > 10000 nM, the “BA (oral bioavailability)” value ([2]; P.O. 25 mg/Kg vs I.V. 5 mg/Kg) was 24.95% and the T1/2 ([2]; P.O. 25 mg/Kg, 25 mg/kg) was 6.13 h. It also gave a half-life ([2]; Sprague-Dawley, rat, plasma, iv, 5 mg/kg, I.V. 5 mg/Kg) of 1.36 h, an AUC(0-inf) [2, 4] of 1880 ng·h/mL and a Cmax [2, 4] of 3270 ng/mL. It also gave a Tmax [2, 4] of 0.08 h, a bioavailability ([2]; Sprague-Dawley, rat, plasma, oral, 25 mg/kg, P.O. 25 mg/Kg vs I.V. 5 mg/Kg, read-out: BA (oral bioavailability)) of 25% and a half-life ([2]; Sprague-Dawley, rat, plasma, po, 25 mg/kg, P.O. 25 mg/Kg) of 6.1 h. For the same compound, the AUC(0-inf) [2, 5] was 2340 ng·h/mL, the Cmax [2, 5] was 160 ng/mL and the Tmax [2, 5] was 6.67 h. The Cmax ([2]; Sprague-Dawley, rat, plasma, single oral dosing 25 mg/kg) was 297 nM and the IC50 [3] was 7.5 ± 0.1 nM.
